# Experimental data published in patent US8754098B2 (Salix Pharmaceuticals, Ltd., priority 2008, dated 2014).
# Assays:
# Assay type in all cases: physicochemical
# [1] = Rifaximin drying experiments (solid form by XRPD); settings: for solid form after vacuum dried: vacuum dried (Table 1); for XRPD Form: vac oven 50° C., 1 day
# Source text: Dried materials obtained by vacuum drying or heating the hydrates were labeled “dry”. […] After a portion of the rifaximin was removed for XRPD analysis the remainder of the sample was dried under vacuum at ambient temperature for approximately one day. Solids were stored in a dessicator prior to analysis by XRPD. (FIG. 9)
# [2] = Stressing under various relative humidities (solid form by XRPD); settings: for RH stability: solid form change after exposing to 58% RH / RH stability: solid form change after exposing to 75% RH: am = amorphous
# Description: Stressing Under Various Relative Humidities (RH)
# The jar was sealed and stored at either ambient temperature or in an oven at elevated temperature.
# X-ray powder diffraction (XRPD) analyses were performed using a Shimadzu XRD-6000 X-ray powder diffractometer using Cu Kα radiation. The instrument is equipped with a long fine focus X-ray tube. The tube voltage and amperage were set to 40 kV and 40 mA, respectively. The divergence and scattering slits were set at 1° and the receiving slit was set at 0.15 mm. Diffracted radiation was detected by a NaI scintillation detector. A θ-2θ continuous scan at 3°/min (0.4 sec/0.02° step) from 2.5 to 40°2θ was used. A silicon standard was analyzed to check the instrument alignment. Data were collected and analyzed using XRD-6100/7000 v. 5.0. Samples were prepared for analysis by placing them in a sample holder.
# X-ray powder diffraction (XRPD) analyses were performed using an Inel XRG-3000 diffractometer equipped with a CPS (Curved Position Sensitive) detector with a 2θ range of 120°. Real time data were collected using Cu—Kα radiation starting at approximately 4° 2θ at a resolution of 0.03° 2θ. The tube voltage and amperage were set to 40 kV and 30 mA, respectively. The monochromator slit was set at 5 mm by 160 μm. […] Samples were prepared for analysis by packing them into thin-walled glass capillaries. Each capillary was mounted onto a goniometer head that is motorized to permit spinning of the capillary during data acquisition. The samples were analyzed for 300 sec. Instrument calibration was performed using a silicon reference standard.
# [3] = Automated moisture sorption/desorption (MB / DVS); settings: for wt loss upon equilibration at 5% RH: moisture balance; for Post-MB XRPD / Final Form post moisture sorption/desorption: sorption from 5% RH to 95% RH, desorption from 95% RH to 5% RH
# Description: Automated Moisture Sorption/Desorption Moisture sorption/desorption data were collected on a VTI SGA-100 Vapor Sorption Analyzer. Sorption and desorption data were collected over a range of 5% to 95% relative humidity (RH) at 10% RH intervals under a nitrogen purge. Samples were not dried prior to analysis. Equilibrium criteria used for analysis were less than 0.0100% weight change in 5 minutes, with a maximum equilibration time of 3 hours if the weight criterion was not met. Data were not corrected for the initial moisture content of the samples. NaCl and PVP were used as calibration standards.
# [4] = Stressing of amorphous rifaximin (vapor stress, vapor diffusion); settings: for form from vapor diffusion experiment: water as an antisolvent
# Description: (§1) Vapor stressing experiments were done on amorphous material from two preparations: lyophilization from p-dioxane:water 1:1 and crash precipitation from ethyl acetate with heptane. […] The majority of the stressed samples appeared as clear red solutions after 6 days. Those solutions were placed in vials of antisolvent for vapor diffusion. Dry and wet milling experiments were conducted on amorphous materials from the two preparations mentioned above. Amorphous materials were recovered from the dry milling experiments.
# [5] = Milling experiments for amorphous rifaximin; settings: scraped sides
# Description: as §1
# A solid sample of rifaximin was charged to a milling container with a milling ball. Samples were milled for 5 or 15 minute intervals (2×5 minutes, 2×15 minutes, and 3×15 minutes) at 30 Hz using a Retsch MM200 mixer mill. Solids were scraped from the sides of the vial after each interval.
# [6] = first amorphous sample of Table 3 (footnote c, 3436-54)
# [7] = second amorphous sample of Table 3 (footnote d, 3436-55)
compound,measurement,setting,value
"CO[C@H]1/C=C/O[C@@]2(C)Oc3c(C)c(O)c4c(O)c(c5c(nc6cc(C)ccn65)c4c3C2=O)NC(=O)/C(C)=C\C=C\[C@H](C)[C@H](O)[C@@H](C)[C@@H](O)[C@@H](C)[C@H](OC(C)=O)[C@@H]1C [Form β-2, Rifaximin]",solid form after vacuum dried,[1]; listed as β-2,α dry
same,RH stability: solid form change,[2]; studied at 20% RH (footnote d),α^d
"CO[C@H]1/C=C/O[C@@]2(C)Oc3c(C)c(O)c4c(O)c(c5c(nc6cc(C)ccn65)c4c3C2=O)NC(=O)/C(C)=C\C=C\[C@H](C)[C@H](O)[C@@H](C)[C@@H](O)[C@@H](C)[C@H](OC(C)=O)[C@@H]1C [Form ζ, Rifaximin]",solid form after vacuum dried,[1],η or and γ + η
same,XRPD Form / Final Form after stability chamber,"[2]; 75% RH at 40° C., 1 day",ζ + γ^e
"CO[C@H]1/C=C/O[C@@]2(C)Oc3c(C)c(O)c4c(O)c(c5c(nc6cc(C)ccn65)c4c3C2=O)NC(=O)/C(C)=C\C=C\[C@H](C)[C@H](O)[C@@H](C)[C@@H](O)[C@@H](C)[C@H](OC(C)=O)[C@@H]1C [lyophilized amorphous rifaximin, Rifaximin]",hygroscopicity,[3],moderately hygroscopic
"CO[C@H]1/C=C/O[C@@]2(C)Oc3c(C)c(O)c4c(O)c(c5c(nc6cc(C)ccn65)c4c3C2=O)NC(=O)/C(C)=C\C=C\[C@H](C)[C@H](O)[C@@H](C)[C@@H](O)[C@@H](C)[C@H](OC(C)=O)[C@@H]1C [Form β-1, Rifaximin]",RH stability: solid form change after exposing to 58% RH,[2]; listed as β-1,β + pk
same,RH stability: solid form change after exposing to 75% RH,[2]; listed as β-1,β
"CO[C@H]1/C=C/O[C@@]2(C)Oc3c(C)c(O)c4c(O)c(c5c(nc6cc(C)ccn65)c4c3C2=O)NC(=O)/C(C)=C\C=C\[C@H](C)[C@H](O)[C@@H](C)[C@@H](O)[C@@H](C)[C@H](OC(C)=O)[C@@H]1C [Form γ, Rifaximin, reference compound]",hygroscopicity,[3],hygroscopic
same,wt loss upon equilibration at 5% RH,[3],2.4%
"CO[C@H]1/C=C/O[C@@]2(C)Oc3c(C)c(O)c4c(O)c(c5c(nc6cc(C)ccn65)c4c3C2=O)NC(=O)/C(C)=C\C=C\[C@H](C)[C@H](O)[C@@H](C)[C@@H](O)[C@@H](C)[C@H](OC(C)=O)[C@@H]1C [amorphous, Rifaximin]",XRPD Result,"[4]; DCM, VD w/ IPE, 11 days",amorphous
same,XRPD Result,"[4]; MEK, VD w/ IPE, 11 days",amorphous
same,form from vapor diffusion experiment,[4]; methanol,Form β
same,form from vapor diffusion experiment,[4]; tetrahydrofuran,Form β
same,XRPD Result,"[4]; toluene, VS, RT, 6 days, Amorphous Materials",amorphous
same,XRPD Result,"[4]; toluene, VS, RT, 6 days, listed as amorphous material",no peaks
same,XRPD Result,"[4]; water, VS, RT, 15 days",amorphous
same,DVS weight gain from 5-95% RH,[3]; [6],8.364% eight gain from 5-95%
same,DVS weight loss from 95-5% RH,[3]; [6],10.989% weight loss from 95-
same,wt loss upon equilibration at 5% RH,[3]; listed as Rifaximin Amorphous,0.7% wt loss upon equilibration at 5% RH
same,DVS weight gain from 5-95% RH,[3]; [7],7.843% weight gain from 5-
same,DVS weight loss from 95-5% RH,[3]; [7],9.172% weight loss from 95-5%
same,Post-MB XRPD / Final Form post moisture sorption/desorption,[3]; listed as Amorphous,amorphous
same,Post-MB XRPD / Final Form post moisture sorption/desorption,[3]; listed as Amorphous rifaximin,amorphous
same,Post-MB XRPD / Final Form post moisture sorption/desorption,[3]; listed as Rifaximin Amorphous,amorphous
same,XRPD Result after milling,"[5]; sample source CP from EtOAc with heptane, 10 min. at 30 Hz",amor-
same,XRPD Result after milling,"[5]; sample source lyophilization from p-dioxane: water 1:1, 10 min. at 30 Hz",amor-
same,form by XRPD analysis after storage,[2]; 58% RH for 8 days,remained amorphous
same,RH stability: solid form change after exposing to 58% RH,[2],am
same,RH stability: solid form change after exposing to 75% RH,[2],am
"CO[C@H]1/C=C/O[C@@]2(C)Oc3c(C)c(O)c4c(O)c(c5c(nc6cc(C)ccn65)c4c3C2=O)NC(=O)/C(C)=C\C=C\[C@H](C)[C@H](O)[C@@H](C)[C@@H](O)[C@@H](C)[C@H](OC(C)=O)[C@@H]1C [crash amorphous rifaximin, Rifaximin]",hygroscopicity,[3],moderately hygroscopic
"CO[C@H]1/C=C/O[C@@]2(C)Oc3c(C)c(O)c4c(O)c(c5c(nc6cc(C)ccn65)c4c3C2=O)NC(=O)/C(C)=C\C=C\[C@H](C)[C@H](O)[C@@H](C)[C@@H](O)[C@@H](C)[C@H](OC(C)=O)[C@@H]1C [Form η, Rifaximin]",solid form after vacuum dried,[1]; listed as η,η
"CO[C@H]1/C=C/O[C@@]2(C)Oc3c(C)c(O)c4c(O)c(c5c(nc6cc(C)ccn65)c4c3C2=O)NC(=O)/C(C)=C\C=C\[C@H](C)[C@H](O)[C@@H](C)[C@@H](O)[C@@H](C)[C@H](OC(C)=O)[C@@H]1C [Form β, Rifaximin, reference compound]",XRPD Form,"[2]; P2O5, 4 days",α dry
"CO[C@H]1/C=C/O[C@@]2(C)Oc3c(C)c(O)c4c(O)c(c5c(nc6cc(C)ccn65)c4c3C2=O)NC(=O)/C(C)=C\C=C\[C@H](C)[C@H](O)[C@@H](C)[C@@H](O)[C@@H](C)[C@H](OC(C)=O)[C@@H]1C [Form α-dry, Rifaximin]",XRPD Form,[1],α dry
same,XRPD Form,[1]; vac oven 60° C.,α dry
same,solid form after vacuum dried,[1]; listed as α dry,α dry
same,Post-MB XRPD / Final Form post moisture sorption/desorption,[3]; listed as α dry,α dry
same,Final Form,"[2]; 33% RH, 2 days",α
same,Final Form,"[2]; 33% RH, 7 days",α
same,Final Form,"[2]; 43% RH, 4 days",α + β
same,Final Form,"[2]; 43% RH, 11 days",β + (α)
same,RH stability: solid form change after exposing to 58% RH,[2]; listed as α dry,β
same,RH stability: solid form change after exposing to 75% RH,[2]; listed as α dry,β
same,RH stability: solid form change after exposing to 94% RH,[2]; 94% RH,β
